In US10620222B2, “Electrified compositions for determining the risk of developing adolescent idiopathic scoliosis through the use of GI protein receptor” (CHU Sainte-Justine, priority 2008, dated 2020):
“And” between values parts separate entries of the source, which are not always exact repeats. Equal values may be shown once.

Assays:
[1] = system: receptors coupled to Gi proteins expressed on osteoblasts; experiment: Cellular Dielectric Spectroscopy (CDS, CELLKEY) response to Gi-coupled receptor ligands in osteoblasts from control and AIS subjects; assay type: cell-based, human; design: % of control / % of control signal, Group 1, min diff. / % of control signal, Group 2, min diff. / % of control signal, Group 3, min diff.: concentration or dose not given beside the values; dZiec value / Absolute dZiec, control value of max diff. (maximal control value): unit not given here; conditions: for dZiec value: n1, n2 of Exper. 1-3
[2] = system: Gi protein-mediated pathway in MG63 osteoblast cell line; assay type: cell-based; conditions: 100 ng/mL PTX 16 h, stimulation with 10 μM ligand, 37° C., 5 min
Experimental: The ability of CDS to detect the relative part of the Gi protein-mediated pathway in melatonin signaling was determined by blocking this pathway with pertussis toxin (PTX). This toxin ADP-ribosylates the a subunit of the heterotrimeric Gi protein and thereby prevents its activity. The MG63 osteoblast cell line was serum-starved for 16 h in the absence or presence of 100 ng/mL of PTX to inhibit the αi subunit of Gi protein. […] Cellular responses were measured with CELLKEY™ label-free cellular analysis system as described in the Material and Methods section.

[3] = system: melatonin signaling in osteoblasts; experiment: cAMP assay in forskolin pre-treated osteoblasts; assay type: cell-based, human; conditions: osteoblasts from IS patients; increasing concentration of melatonin; FIG. 2
Experimental: Osteoblasts from patients with IS and control subjects were seeded in quadruplicate on 24-well plates (1×10^5 cells per well) and tested as previously described (Moreau A, Wang D S, Forget S et al. Melatonin Signaling Dysfunction in Adolescent Idiopathic Scoliosis. Spine 2004; 29:1772-81). All assays were performed in duplicate.
Cells were then challenged with increasing concentration of melatonin and the functional status of melatonin signaling was estimated by the ability of melatonin to reduce cAMP levels. Data were normalized with cAMP production induced by forskolin in the absence of melatonin. […] Furthermore, the extent of this production was different between the three IS patients.

[4] = osteoblasts of control subjects, 300 μM ligand, from FIGS. 11A-11F

COc1ccc2[nH]cc(CCNC(C)=O)c2c1 [Melatonin, melatonin]
CDS response, dependence on concentration ([1]; osteoblasts from both control and IS patients, FIGS. 4A-4C): concentration-dependent manner
% of control ([1]; osteoblasts of AIS#1020 (Group 3) relative to CTR#60): 52.6% and 59.8% and 63.3% and 58.1% and 58% and 59.2%
dZiec value ([1]; osteoblasts of AIS#1020 (Group 3), 300 μM ligand): 29.38 and 31.88 and 40.33 and 39.33 and 34.34 and 36.12
% of control ([1]; osteoblasts of AIS#1198 (Group 3 in Table II) relative to CTR#69): 39.3% and 42.7% and 35.6% and 27.7% and 33.3% and 34.7%
dZiec value ([1]; osteoblasts of AIS#1198 (Group 3 in Table II), 300 μM ligand): 23.94 and 31.44 and 31.91 and 25.91 and 27.41 and 29.19
% of control ([1]; osteoblasts of AIS#1468 (Group 3) relative to CTR#61): 65.3% and 70% and 67.8% and 64.6% and 66.4% and 67.2%
dZiec value ([1]; osteoblasts of AIS#1468 (Group 3), 300 μM ligand): 44.92 and 46.42 and 54.79 and 49.34 and 51.12
% of control ([1]; osteoblasts of AIS#1474 (Group 1) relative to CTR#60): 29.6% and 24.4% and 23.8% and 22.4% and 29.3% and 26.4%
dZiec value ([1]; osteoblasts of AIS#1474 (Group 1), 300 μM ligand): 16.53 and 13.03 and 15.18 and 17.34 and 16.12
% of control ([1]; osteoblasts of AIS#1488 (Group 1) relative to CTR#69): 12.9% and 15.3% and 12.2% and 11.7% and 15% and 14.4%
dZiec value ([1]; osteoblasts of AIS#1488 (Group 1), 300 μM ligand): 9.79 and 11.29 and 10.91 and 12.34 and 12.12
% of control ([1]; osteoblasts of AIS#1513 (Group 3) relative to CTR#61): 56.5% and 59.4% and 62.9% and 61.1% and 59.7% and 60.6%
dZiec value ([1]; osteoblasts of AIS#1513 (Group 3), 300 μM ligand): 38.90 and 39.40 and 50.81 and 51.81 and 44.34 and 46.12
% of control ([1]; osteoblasts of AIS#1549 (Group 1) relative to CTR#61): 25.1% and 25.3% and 22.8% and 24.1% and 23.3%
dZiec value ([1]; osteoblasts of AIS#1549 (Group 1), 300 μM ligand): 17.30 and 16.80 and 18.41 and 20.41 and 17.34 and 19.12
% of control ([1]; osteoblasts of AIS#1550 (Group 2) relative to CTR#60): 50.7% and 57.7% and 46.2% and 47.9% and 49.5% and 51%
dZiec value ([1]; osteoblasts of AIS#1550 (Group 2), 300 μM ligand): 28.28 and 30.78 and 29.43 and 32.43 and 29.34 and 31.12
dZiec value ([1]; osteoblasts of control CTR#60, 300 μM ligand): 55.81/— and 53.31/— and 63.72/— and 67.72/— and 59.25/— and 61.03/—
dZiec value ([1]; osteoblasts of control CTR#61, 300 μM ligand): 68.79/— and 66.29/— and 80.84/— and 84.84/— and 74.30/— and 76.08/—
dZiec value ([1]; osteoblasts of control CTR#69, 300 μM ligand): 76.12/— and 73.62/— and 89.58/— and 93.58/— and 82.34/— and 84.12/—
Absolute dZiec, control value of max diff. (maximal control value) [1, 4]: 83
Absolute dZiec, control value of min diff. (minimal control value) [1, 4]: 60
Absolute dZiec, Group 1, max diff. (group value) ([1]; osteoblasts, AIS Group 1 value of max diff., 300 μM ligand, from FIGS. 11A-11F): 11
Absolute dZiec, Group 1, min diff. (group value) ([1]; osteoblasts, AIS Group 1 value of min diff., 300 μM ligand, from FIGS. 11A-11F): 18
% of control signal, Group 1, max diff. ([1]; osteoblasts, AIS Group 1 vs maximal control value): 13%
% of control signal, Group 1, min diff. ([1]; osteoblasts, AIS Group 1 vs minimal control value): 30%
Absolute dZiec, Group 2, max diff. (group value) ([1]; osteoblasts, AIS Group 2 value of max diff., 300 μM ligand, from FIGS. 11A-11F): 28
Absolute dZiec, Group 2, min diff. (group value) ([1]; osteoblasts, AIS Group 2 value of min diff., 300 μM ligand, from FIGS. 11A-11F): 37
% of control signal, Group 2, max diff. ([1]; osteoblasts, AIS Group 2 vs maximal control value): 34%
% of control signal, Group 2, min diff. ([1]; osteoblasts, AIS Group 2 vs minimal control value): 62%
Absolute dZiec, Group 3, max diff. (group value) ([1]; osteoblasts, AIS Group 3 value of max diff., 300 μM ligand, from FIGS. 11A-11F): 45
Absolute dZiec, Group 3, min diff. (group value) ([1]; osteoblasts, AIS Group 3 value of min diff., 300 μM ligand, from FIGS. 11A-11F): 50
% of control signal, Group 3, max diff. ([1]; osteoblasts, AIS Group 3 vs maximal control value): 54%
% of control signal, Group 3, min diff. ([1]; osteoblasts, AIS Group 3 vs minimal control value): 83%
magnitude of CDS response in IS osteoblasts vs control ([1]; osteoblasts, FIGS. 4A-4C): significantly lower
inhibition extent of the CDS response by PTX treatment [2]: about 75%
cAMP production after forskolin stimulation, IS vs healthy control osteoblasts [3]: high cAMP production
